The values that follow come from article PMC3790769, “Ansamitocin P3 Depolymerizes Microtubules and Induces Apoptosis by Binding to Tubulin at the Vinblastine Site” (PLoS ONE, 2013).

The assay concerns the target T1, tubulin.
T1 construct: tubulin isolated from goat brain (alpha-beta dimer); with alpha-tubulin/beta-tubulin heterodimer
Put plainly: intrinsic tryptophan fluorescence quenching of purified tubulin; supported by reduced DTNB cysteine modification. The assay is classed as binding, Capra hircus.

Molecules are shown by their SMILES.

As usually defined, the Kd is the constant that tells how readily two partners part at equilibrium. A high value points to a looser complex.

The molecule `COc1cc2cc(c1Cl)N(C)C(=O)C[C@H](OC(=O)C(C)C)[C@]1(C)O[C@H]1[C@H](C)[C@@H]1C[C@@](O)(NC(=O)O1)[C@H](OC)/C=C/C=C(\C)C2` [Ansamitocin P3] displayed a Kd of 1300 ± 700 nM.
